In US20260159474A1, “Aminoindane Compounds and Compositions and Methods of Their Therapeutic Use” (Solvonis Therapeutics Ireland Holdings Limited, priority 2021, published 2026):
Converted amounts (≈) assume the structure as drawn.

Experiments:
human 5-HT2A receptor = target: T1, human 5-HT2A receptor (Homo sapiens, UniProt P28223); experiment: Intracellular calcium response (FLIPR) in CHO cells expressing human 5-HT2A receptor; assay type: cell-based; conditions: n=2; for 5-HT2A agonist mode pEC50: intracellular calcium; for 5-HT2A antagonist mode pIC50: inhibition of serotonin EC80 response
T1 construct: expressed in transfected cells; host or cells: CHO
T1 sequence (P28223 whole entry): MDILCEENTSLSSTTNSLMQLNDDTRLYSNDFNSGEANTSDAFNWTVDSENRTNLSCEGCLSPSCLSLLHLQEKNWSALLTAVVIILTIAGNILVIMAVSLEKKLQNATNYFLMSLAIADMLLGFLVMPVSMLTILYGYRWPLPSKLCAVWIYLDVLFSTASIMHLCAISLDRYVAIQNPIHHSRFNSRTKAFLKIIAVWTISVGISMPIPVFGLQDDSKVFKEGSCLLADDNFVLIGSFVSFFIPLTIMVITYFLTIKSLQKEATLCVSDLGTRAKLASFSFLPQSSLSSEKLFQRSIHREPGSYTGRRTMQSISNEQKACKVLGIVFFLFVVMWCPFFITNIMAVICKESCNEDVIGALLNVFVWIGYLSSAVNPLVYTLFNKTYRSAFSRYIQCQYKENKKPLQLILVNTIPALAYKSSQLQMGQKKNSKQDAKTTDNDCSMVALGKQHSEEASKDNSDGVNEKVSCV
Experimental: Methods: Selectivity for the 5-HT2A receptor was assessed by measuring [ICa2+]i in a CHO recombinant cell line stably expressing the human 5-HT2A receptor, using a Fluorometric Imaging Plate Reader (FLIPR TETRA, Molecular Devices).
The day before the experiment, CHO cells were seeded into black-wells clear-bottom 384-well plates at a density of 10,000 cells per well, in F-12K Medium (ThermoFisher #21127) supplemented with 10% dialyzed fetal bovine serum, and grown overnight at 37° C., 5% C02.
On the day of the experiment, the medium was replaced with assay buffer (20 miM HEPES, 145 mM NaCl, 5 mM KCl, 5.5 mM glucose, 1 mM MgCl2, 2 mM CaCl2 and 2.5 mM probenecid, pH 7.4) containing the cytoplasmic Ca2+ indicator Fluo-4 AM at 2 μM and 0.02% Pluronic F-127. After an incubation of 45-60 minutes at 37° C., 0% C02, cells were washed by Microplate Washer (BIOTEK) 384 with assay buffer, and the plate was transferred to the FLIPR TETRA. Then, intracellular fluorescence was measured in real time by FLIPR TETRA (excitation wavelength at 470-495 nm, emission wavelength at 515-575 nm), using a dual addition protocol.
In the first addition, test compounds (11 points of 1:4 serial dilution, 0.5% DMSO final) were added to the cell plate to evaluate their effect on intracellular calcium levels. In the event of a response, the signal was elaborated for the determination of pEC50/EC50 values.

[1] = Solubility in PBS (pH 7.4), HPLC-UV; assay type: physicochemical; conditions: for solubility at 120 min: PBS pH 7.4, room temperature, 2% DMSO; for Characterization (solubility class): PBS pH 7.4
Experimental: Stock solutions of therapeutic compounds (20 mM) were prepared in DMSO, on the same day of the experiment when feasible. These solutions were compared with an external standard solution of known concentration via HPLC-UV. To prepare the standard, 4 μL from a 20 mM compound stock solution was added to DMSO in a vial/well, and mixed with shaking at room temperature for 10 minutes. The standard buffer used for the assessment was PBS buffer (pH 7.4), but alternative buffers may also be used, such as biologically relevant Fluids, including Simulated Gastric fluid (SGF) at pH 1.2, Fasted State Simulated Intestinal Fluid (FaSSIF) at pH 6.5, and Fed State Simulated Intestinal Fluid (FeSSIF) at pH 5.0.
An isotonic phosphate buffer (iPBS) was prepared by dissolving a phosphate buffered saline tab (Sigma-Aldrich P4417-50Tab) in 200 mL of deionized water, the final composition of the solution being 10 mM PBS, 2.7 mM kCl, and 137 mM NaCl, yielding a final pH of 7.4 at 25° C. Samples were prepared by dispensing 8 μL from a 20 mM compound stock solution in DMSO in a vial/well in duplicate, adding 392 μL of buffer in each vial/well, and mixed by shaking at room temperature for 120 minutes. The final compound concentration was approximately 400 μM, while the final concentration of DMSO was about 2%. The solutions were then filtered prior to analysis.
Concentrations were determined by comparing UV absorbance of the test solution and of the known standard solution following HPLC separation using a generic fast gradient method employing a DAD detector and UV detection at 230 and 254 nm. Concerning the HPLC Mobile phase, Phase A was a 50 mM ammonium acetate aqueous solution (pH adjusted to 7.4 with ammonia), and Phase B was acetonitrile. For data analysis, chromatographic peaks were automatically integrated, and the parameters were optimized to enable consistent integration of all chromatograms in the entire analytical run. The solubility of each compound was expressed as the ratio of compound amount in the sample test solution to the amount of compound in the standard solution, calculated from the equation “solubility of sample=peak area of sample/peak area of standard×concentration of standard.”

[2] = target: T2, human P-glycoprotein transporter (MDCKII-MDR1 cells) (Homo sapiens, UniProt P08183); experiment: Bidirectional permeability and P-gp substrate assay in MDCKII-MDR1 cells; assay type: in vitro ADME; conditions: for Permeability classification: by Papp; for Papp A→B at 60 min: dog, MDCK, read-out: MDCKII Permeability app A > B; for P-gp Substrate?: efflux ratio >2 and reduced with GF120918 or in mock MDCKII cells
T2 construct: expressed in transfected cells; host or cells: MDCKII-MDR1 (Madin-Darby Canine Kidney clone II)
T2 sequence (P08183 whole entry): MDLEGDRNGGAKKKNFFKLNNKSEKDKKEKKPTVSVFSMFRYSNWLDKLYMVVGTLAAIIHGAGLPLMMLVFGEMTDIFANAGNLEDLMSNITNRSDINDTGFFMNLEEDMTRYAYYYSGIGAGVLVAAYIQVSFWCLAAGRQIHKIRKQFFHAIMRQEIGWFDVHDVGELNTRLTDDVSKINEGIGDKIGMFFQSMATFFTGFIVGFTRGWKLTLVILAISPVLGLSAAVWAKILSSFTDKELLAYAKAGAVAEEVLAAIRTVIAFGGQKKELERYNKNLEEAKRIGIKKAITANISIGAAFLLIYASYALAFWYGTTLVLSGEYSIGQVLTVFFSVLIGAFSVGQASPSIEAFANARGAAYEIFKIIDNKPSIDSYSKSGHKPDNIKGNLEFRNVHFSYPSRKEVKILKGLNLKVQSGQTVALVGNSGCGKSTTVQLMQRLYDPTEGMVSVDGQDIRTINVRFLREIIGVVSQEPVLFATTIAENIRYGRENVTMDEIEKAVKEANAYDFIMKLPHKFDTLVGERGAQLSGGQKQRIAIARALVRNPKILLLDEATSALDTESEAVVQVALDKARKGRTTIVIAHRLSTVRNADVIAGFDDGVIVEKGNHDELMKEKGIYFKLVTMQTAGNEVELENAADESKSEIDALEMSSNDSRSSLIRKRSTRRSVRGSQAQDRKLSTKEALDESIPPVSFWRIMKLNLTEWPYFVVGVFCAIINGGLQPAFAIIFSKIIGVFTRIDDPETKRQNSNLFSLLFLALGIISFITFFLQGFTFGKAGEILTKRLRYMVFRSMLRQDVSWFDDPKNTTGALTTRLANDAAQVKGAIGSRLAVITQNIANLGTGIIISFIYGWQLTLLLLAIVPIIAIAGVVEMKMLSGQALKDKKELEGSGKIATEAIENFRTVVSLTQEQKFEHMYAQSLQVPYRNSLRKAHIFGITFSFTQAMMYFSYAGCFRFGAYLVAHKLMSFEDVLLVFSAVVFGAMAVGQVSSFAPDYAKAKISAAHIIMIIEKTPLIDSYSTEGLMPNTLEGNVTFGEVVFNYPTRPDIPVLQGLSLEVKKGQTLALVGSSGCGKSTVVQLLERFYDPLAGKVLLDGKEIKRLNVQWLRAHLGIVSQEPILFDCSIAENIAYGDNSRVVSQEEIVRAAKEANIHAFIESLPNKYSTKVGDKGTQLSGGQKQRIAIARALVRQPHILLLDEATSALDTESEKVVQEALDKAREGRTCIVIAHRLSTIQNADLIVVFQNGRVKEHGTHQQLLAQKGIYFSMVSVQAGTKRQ
Experimental: Methods: A bidirectional permeability study was conducted to evaluate the apparent permeability (Papp) of therapeutic compounds. Additionally, the MDCKII-MDR1 cell line (Madin-Darby Canine Kidney clone II cell line heterologously expressing the human P-glycoprotein transporter) and mock cell line MDCKII were used to determine whether a compound acted as a P-gp substrate, in the absence and in the presence of a potent P-gp inhibitor. Test control items (digoxin, metoprolol, and atenolol) and control P-gp inhibitor (GF120918) stock solution were prepared in DMSO. Bidirectional assays (Apical to Basolateral [AB] and Basolateral to Apical [BA]) were run, in both the absence and presence of P-gp inhibitor GF120918 in MDCKII-MDR1 and mock cell line MDCKII, using as transport buffer HBSSH at a pH of 7.4 (n=3).
Compounds were tested at a single concentration (i.e. at […]) at one time point (i.e. 60 min). Alternative concentrations or time points may also be investigated. As reference compounds, digoxin (P-gp substrate), atenolol (low permeability) and metoprolol (high permeability) were included at a single concentration (e.g., 10 or […]) and at single time point (e.g., 60 min). Digoxin transport was evaluated in two directions (apical-to-basolateral [AB] and basolateral-to-apical [BA]) in the absence and presence of GF120918 or in mock cells, MDCKII (n=3). Atenolol and metoprolol were only tested in the AB direction in absence of P-gp inhibitor GF120918 or in mock cells, MDCKII (n=3). The integrity of the cell monolayer was evaluated after the permeability experiment using the paracellular permeability marker Lucifer yellow (LY) in the apical to basolateral direction in each well.
MDCKII or MDCKII-MDR1 cells were cultivated in DMEM (high glucose, GlutaMAXTM supplemented with pyruvate, 10% FBS HI and Pen/Strep). Cells were seeded onto microporous PET (Polyethylene Terephthalate) membranes in HTS 96-Multiwell Insert plates at a density of ˜175,000-245,000 cells/cm^2 (25000-35000 cells/well; 50 μL/well) in DMEM medium and incubated for 3-4 days at 37° C.-5% CO2. Medium was changed the day before the experiment.
Stock solutions of test items were prepared in DMSO at a concentration of 5 or 10 mM and stored at −20° C. until use. The potent P-gp inhibitor, GF120918 (stock solution 10 mM) and the reference controls digoxin, atenolol, metoprolol (stock solutions 3 or 10 mM) were prepared in DMSO and stored at −20° C. until use.
Donor working solutions of test items and reference controls were prepared at a concentration of 10 or 25 µM, diluting the stock solutions in HBSSH. Receiver working solutions contained transport buffer only. All working solutions were prepared such that the final concentration of DMSO was 1% (v/v). A donor working solution containing LY was also prepared in transport buffer at 100 µM.
MDCKII and MDCKII-MDR1 cells were preincubated (37° C., 15 to 30 minutes) in receiver working solutions containing transport buffer on apical (A) and basolateral (B) sides. Following pre-incubation, test items and control items (digoxin) transport were measured in two directions (apical to basolateral [AB]) and basolateral to apical [BA]), and these directions were performed in triplicate sets of wells, in both the absence and presence of […] GF120918 or mock MDCKII cells. For [AB] directional transport, 75 μL of donor working solution was added to the A (apical) compartment and 235 μL of receiver working solution was added to the B (basolateral) compartment. For [BA] directional transport, 235 μL donor working solution with test items or reference controls was added to the B compartment and 75 μL receiver working solution was added to the A compartment. Transport of permeability reference controls, atenolol and metoprolol, were measured in one direction (apical to basolateral [AB]) (n=3).
The cells were incubated (at 37° C., with shaking) for 60 minutes. […]

[3] = PBS buffer, aqueous buffer, kinetic from dmso stock
[4] = apical to basolateral, pH 7.4, 60 min

Structure (SMILES) | 5-HT2A agonist mode pEC50 (human 5-HT2A receptor) | 5-HT2A antagonist mode pIC50 (human 5-HT2A receptor) | solubility at 120 min [1, 3] [µM] | Characterization (solubility class) [1] | Permeability classification [2] | Papp A→B at 60 min [2, 4] [×10⁻⁶ cm/s] | P-gp Substrate? [2] | solubility at 120 min [1] [µM] | MDCKII Permeability app A > B [2, 4] [×10⁻⁶ cm/s] | MDCKII-MDR1 B-A ratio ([2]; efflux ratio, MDCKII-MDR1 cells)
COC(=O)c1ccc2c(c1)CC(N)C2 (stereo not shown) [CMP-405, 2-aminoindane-5-methylcarboxylate] | comparable to MDMA | comparable to MDMA | 392 (≈ 75 µg/mL) | High solubility | highly permeable | 16.2 | No | – | – | –
CNC(C)Cc1ccc2c(c1)OCO2 (stereo not shown) [MDMA] | less than 4.3 | less than 4.3 | – | High solubility | less permeable | – | No | 386 (≈ 74.6 µg/mL) | 14 | 1.5
COc1ccc2c(c1)CC(N)C2 (stereo not shown) [MEAI, 5-methoxy-2-aminoindane] | comparable to MDMA | comparable to MDMA | 374 (≈ 61 µg/mL) | High solubility | highly permeable | 17.4 | No | – | – | –
